# According to ChEMBL document CHEMBL4033758, “Systematic Data Mining Reveals Synergistic H3R/MCHR1 Ligands” (ACS Med Chem Lett, 2017):
# Target: Histamine H3 receptor (Homo sapiens, UniProt Q9Y5N1)
# Experiment: Displacement of [3H]-N-alpha-methylhistamine from human H3R expressed in HEK293 cell membranes after 90 mins by liquid scintillation counting analysis
# Chain of Histamine H3 receptor (Q9Y5N1 whole entry): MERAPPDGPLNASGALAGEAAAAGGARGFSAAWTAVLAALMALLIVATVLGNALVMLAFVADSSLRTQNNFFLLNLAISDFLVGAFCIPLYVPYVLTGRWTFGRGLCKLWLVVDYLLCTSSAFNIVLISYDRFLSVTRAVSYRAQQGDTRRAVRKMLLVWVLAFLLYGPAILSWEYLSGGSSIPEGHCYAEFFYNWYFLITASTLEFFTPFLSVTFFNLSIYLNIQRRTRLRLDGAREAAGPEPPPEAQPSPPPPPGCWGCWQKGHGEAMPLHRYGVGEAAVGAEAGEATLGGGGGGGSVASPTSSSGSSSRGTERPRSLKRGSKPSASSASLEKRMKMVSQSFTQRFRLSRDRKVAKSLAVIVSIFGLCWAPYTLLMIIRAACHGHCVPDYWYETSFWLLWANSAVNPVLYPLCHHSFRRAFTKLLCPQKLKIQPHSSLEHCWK
row,Structure (SMILES),Ki [nM]
1,O=c1cc(OCc2ccc(F)cc2)ccn1-c1ccc(OCCN2CCCC2)cc1,517
2,COc1cc(-n2cnc3cc(-c4ccc(Cl)cc4)sc3c2=O)ccc1OCCN1CCCC1,208
3,CCN1CCN(c2cc(C)c3cc(NC(=O)/C=C/c4ccc(OC)cc4)ccc3n2)CC1,10.6
